The values that follow come from publication PMC2654408 (PLoS ONE, 2009).

Experiment [1] concerns the target T1, α7-nAChR (Homo sapiens, UniProt P36544).
T1 construct: host or cells: GH4-hα7 (rat pituitary tumor GH4 cells stably transfected with human α7-nAChR)
In words: biochemical. The experiment is classed as binding. The conditions noted are these: for [125I]α-BTX binding compared with control maximum specific binding: Mean±SEM. As for the experimental part: (§1) For membrane binding experiments, confluent cells were scraped off 75 cm^2 culture plates into ice-cold lysis buffer (20 mM Tris-HCl, pH 7.0, 5 mM ethylenediaminetetraacetic acid (EDTA), and 1× protease inhibitor cocktail (Roche Diagnostics, Ltd.,West Sussex, UK). After pelleting by centrifugation for 10 min at 13,000 rpm, cells were resuspended in 7 ml ice-cold lysis buffer, lysed by Dounce homogenization, and then centrifuged at 1000×g for 10 min. Supernatant was removed and the extraction process repeated. The supernatants were combined and centrifuged at 50,000 rpm (70 Ti rotor) for 30 min (Beckman Ultracentrifuge). All centrifugations were carried out at 4°C. The pelleted membranes were resuspended in binding buffer (50 mM Tris-HCl, 120 mM NaCl, 5 mM KCl, 1 mM MgCl2, 2.5 mM CaCl2, pH 7.0) and protein concentration determined using the DC Protein Assay kit (Bio-Rad Laboratories, Ltd., Hemel Hempstead, UK). Binding assays were assembled on ice in borosilicate glass test tubes with 50–100 µg membrane protein in binding buffer in a final volume of 250 µl. Binding reactions were incubated at 4°C overnight, and then terminated by rapid vacuum filtration using a Brandel Cell Harvester onto Whatman GF/B glass fibre filters pre-soaked in 0.4% polyethylenimine. Saturation binding experiments were performed with [^125I]α-BTX concentrations ranging from 0.03–100 nM. Displacement binding experiments were performed with a constant [^125I]α-BTX concentration of 2.0 nM. Non-specific binding was determined with 10 µM MLA.
(§2) Ligand binding data were analyzed using GraphPad Prism 4.03 (GraphPad Software, Inc.) Saturation binding data were fitted by nonlinear regression with a hyperbolic function for a one-binding site model. Displacement binding data were fitted by nonlinear regression for a one-site binding competition model, unless otherwise noted. RT-PCR band density data was analysed using Student's t-test for comparison of individual means with control values and by one-way ANOVA followed by Tukey's multiple comparison test for comparison of test groups and effect of MLA inhibition effects.

A further experiment concerns α7-nAChR mRNA expression. In words: RT-PCR analysis of α7-nAChR mRNA expression in GH4-hα7 cells. Type of experiment: cell-based, human. As for the experimental part: To assess the effects of T-AChE C-terminal peptides on α7-nAChR mRNA expression, total cellular RNA was isolated and analysed for gene-specific expression levels using reverse transcriptase PCR. Specifics of primer design and sequences used in RT-PCR experiments are described in the methods. […] Expression of the housekeeping gene glyceraldehyde 3-phosphate dehydrogenase (GAPDH) was used as a standard for comparative analysis. RT-PCR analysis was performed in control GH4-hα7 cells and those exposed to AChE peptides at concentrations ranging from 1 nM to 1 µM for 24 hr (Fig. 5A). […] A similar high level of α7-nAChR expression was achieved after treatment with only 1 nM T30.
(§3) Ligand binding data were analyzed using GraphPad Prism 4.03 (GraphPad Software, Inc.) Saturation binding data were fitted by nonlinear regression with a hyperbolic function for a one-binding site model. […] RT-PCR band density data was analysed using Student's t-test for comparison of individual means with control values and by one-way ANOVA followed by Tukey's multiple comparison test for comparison of test groups and effect of MLA inhibition effects.
Primers for RNA analysis were designed using the Primer3 program and analysed for structural anomalies and dimer formation using NetPrimer software (Premier Biosoft International, Palo Alto, USA). […]

For experiment [2], the target named is human alpha-7 nicotinic acetylcholine receptor (human) (UniProt P36544).
Sequence of human alpha-7 nicotinic acetylcholine receptor (human) (P36544 23-502): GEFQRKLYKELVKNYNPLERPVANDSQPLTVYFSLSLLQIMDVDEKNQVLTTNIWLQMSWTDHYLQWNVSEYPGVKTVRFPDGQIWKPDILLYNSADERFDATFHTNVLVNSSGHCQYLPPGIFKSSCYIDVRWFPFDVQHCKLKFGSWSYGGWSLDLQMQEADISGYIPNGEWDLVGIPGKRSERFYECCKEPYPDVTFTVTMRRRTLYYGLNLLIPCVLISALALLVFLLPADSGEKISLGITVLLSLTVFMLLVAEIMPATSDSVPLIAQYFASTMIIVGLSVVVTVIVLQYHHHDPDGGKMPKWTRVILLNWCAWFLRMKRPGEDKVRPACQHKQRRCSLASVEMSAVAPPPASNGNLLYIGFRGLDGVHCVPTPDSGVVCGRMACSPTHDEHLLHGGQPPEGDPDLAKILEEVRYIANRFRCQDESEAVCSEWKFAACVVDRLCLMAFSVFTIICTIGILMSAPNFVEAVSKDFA
For experiment [3] the target is unchanged. In words: radioligand binding.
The target of experiment [4] is T1, α7-nAChR. In words: Saturation binding on cell membranes after chronic 24 hr peptide treatment of GH4-hα7 cells. The following applies: 24 hr treatment with 100 nM peptide; read-out: Kd±SEM, receptor affinity for α-BTX. The experiment is classed as cell-based. The protocol:
as §1, §3

Experiment [5] addresses T1, α7-nAChR. In words: Acute live cell [125I]α-BTX binding in GH4-hα7 cells. The following applies: for efficacy in competition with [125I]α-BTX for receptor binding sites: 10 µM peptide. The protocol: Initial experiments were performed to characterize the binding parameters of the human α7-nAChR heterologously expressed in the rat GH4-hα7 cell line using a live-cell binding method. Saturation binding was carried out with [^125I]alpha-bungarotoxin ([^125I]α-BTX) concentrations ranging from 0.03 nM to 100 nM. Non-specific binding was determined in the presence of 10 µM methyllycaconitine (MLA).
For live cell binding experiments, cells were seeded into 6-well plates at a density of 1×10^5 cells/well and allowed to recover for 24–48 hours before experimentation. Cells were treated with indicated peptides or α7-nAChR ligands for 30 min at 37°C in cell medium containing 1% FBS. Then [^125I]α-bungarotoxin ([^125I]α-BTX; 150 Ci/mmol) was added and cells were incubated at 37°C for a further 1.5 hr. Cell layers were washed 3× with 2 ml serum-free DMEM, then 0.5 ml 1 M NaOH was added to each well to lyse cells. Cell lysates were transferred to 5 ml scintillation fluid and radioactivity was determined using a Beckman LS6000IC scintillation counter.
as §2

Experiment [6] deals with T2, human alpha-7 nicotinic acetylcholine receptor (human, UniProt P36544 23-502).
T2 construct: human alpha-7 nicotinic acetylcholine receptor, heterologously expressed in the rat GH4-hα7 cell line; Used on live cells and as purified membranes of the same cell line; also called α7-nAChR; CHRNA7; source: on live cells and in purified cell membranes
T2 sequence (P36544 23-502): as above
Nature of the experiment: radioligand binding. The following applies: one partner purified.

Experiment [7] concerns the target T2, human alpha-7 nicotinic acetylcholine …. In words: radioligand binding. The conditions noted are these: one partner purified. The source holds these as a separate data set.
[8] abbreviates: live cells, [125I]α-BTX displacement, read-out: Ki, high affinity site.

“And” between values parts separate entries of the source, which are not always exact repeats. Equal values may be shown once. Read-outs that look alike come from different tables or passages of the source. Where no end group is shown, it is not given here.

T1 sequence (P36544 23-502): as above

For the molecule `CC(=O)OCC[N+](C)(C)C` [ACh, acetylcholine], the “decrease in specific binding efficacy in the presence of T30 compared with ligand alone” value (from here on “decrease in specific binding efficacy”) at α7-nAChR [1] (membranes, ligand at its EC50, varying concentrations of T30) turned out to be 18%.

One may read the IC50 as the concentration needed to halve the response being measured. Read a high IC50 as weaker potency in that assay. What is called Ki is the dissociation constant of the complex between target and ligand, obtained from inhibition or displacement. As for `C[N+](C)(C)CCO` [Choline, choline], the “decrease in specific binding efficacy” value at α7-nAChR [1] stood at 36%. Besides, the IC50 against α7-nAChR [1] (IC50±SEM) was 123000 nM and 126000 nM and 225000 nM and 357000 nM and 737000 nM. Moreover, the Ki on α7-nAChR [1] (Ki±SEM) was 85900 nM and 88900 nM and 157000 nM and 250000 nM and 515000 nM.

For `CCN1C[C@]2(COC(=O)c3ccccc3N3C(=O)C[C@H](C)C3=O)CC[C@H](OC)[C@@]34[C@@H]5C[C@H]6[C@H](OC)[C@@H]5[C@](O)(C[C@@H]6OC)[C@@](O)([C@@H](OC)[C@H]23)[C@@H]14` [MLA, methyllycaconitine], the “α7-nAChR mRNA expression, relative band density” value in the experiment on α7-nAChR mRNA expression worked out at 1.58±0.12. Besides, on α7-nAChR [1], the “decrease in specific binding efficacy” value is recorded as 24%. Moreover, the IC50 against α7-nAChR [1] (IC50) was 15.5 nM and 9.5 nM.

Consider AChE C-terminal peptide T14, for which the α7-nAChR mRNA expression by RT-PCR (relative band density against GAPDH) in GH4-hα7 cells after 24 hr with 1 nM to 1 µM T14 (relative band density) in experiment [2] was determined as 2.72.

For AChE C-terminal peptide T30, in experiment [3], the Ki, high affinity site was found to be 0.0168 nM and the Ki, second, lower affinity site came to 47.1 nM. The same molecule came in with a α7-nAChR mRNA expression by RT-PCR (relative band density against GAPDH) in GH4-hα7 cells after 24 hr with 1 nM to 1 µM T30 (relative band density) in experiment [2] of 2.98.

The Kd is a measure of binding affinity in units of concentration. Regarding AEFHRWSSYMVHWK [T14], the dissociation constant Kd at α7-nAChR [4] is 9.06 ± 0.93 nM. For the same molecule, the “efficacy in competition with [125I]α-BTX for receptor binding sites” value at α7-nAChR [5] (live cells) is listed as “approximately 40%”. For the same molecule, the inhibition constant (Ki) at α7-nAChR [5] (setting [8]) is 0.653 ± 0.0126 nM. The “[125I]α-BTX binding compared with control maximum specific binding” value on α7-nAChR [1] (membranes, 1 µM peptide) was determined as 90.11±3.5%; at α7-nAChR [1] (membranes, 10 µM peptide) it was 87.91±1.9%.

Consider KAEFHRWSSYMVHWKNQFDHYSKQERCSDL [T30], for which the dissociation constant Kd on α7-nAChR [4] was 12 ± 1.39 nM. In addition, the “efficacy in competition with [125I]α-BTX for receptor binding sites” value on α7-nAChR [5] (live cells) is 70%. In addition, the Ki on α7-nAChR [5] (setting [8]) amounted to 0.0168 ± 0.0018 nM; on α7-nAChR [5] (live cells, two-site competition model, read-out: Ki, second lower affinity site), 47.1 ± 2.8 nM. Further, the “[125I]α-BTX binding compared with control maximum specific binding” value at α7-nAChR [1] (membranes, 1 µM peptide) came out at 110.9±3.6%; at α7-nAChR [1] (membranes, 10 µM peptide), 117.3±4.9%.

For NQFDHYSKQERCSDL [T15], at α7-nAChR [4], the Kd was 4.91 ± 0.53 nM.

Regarding “[^125I]alpha-bungarotoxin [[^125I]α-BTX]”, at α7-nAChR [5], the Bmax was determined as 965.8±28.9 fmol/mg protein and the affinity, expressed as Kd, was 4.68 ± 0.61 nM.

B1: [125I]alpha-bungarotoxin (ligand)
chain: IVCHTTATSPISAVTCPPGENLCYRKMWCDAFCSSRGKVVELGCAATCPSKKPYEEVTCCSTDKCNPHPKQRPG
As to B1, the Kd in experiment [6] is 4.68 nM; in experiment [7], 4.66 nM and 9.06 nM and 12 nM and 4.91 nM.

B2: T-AChE: full-length tailed isoform of acetylcholinesterase (protein)
chain: EGREDAELLVTVRGGRLRGIRLKTPGGPVSAFLGIPFAEPPMGPRRFLPPEPKQPWSGVVDATTFQSVCYQYVDTLYPGFEGTEMWNPNRELSEDCLYLNVWTPYPRPTSPTPVLVWIYGGGFYSGASSLDVYDGRFLVQAERTVLVSMNYRVGAFGFLALPGSREAPGNVGLLDQRLALQWVQENVAAFGGDPTSVTLFGESAGAASVGMHLLSPPSRGLFHRAVLQSGAPNGPWATVGMGEARRRATQLAHLVGCPPGGTGGNDTELVACLRTRPAQVLVNHEWHVLPQESVFRFSFVPVVDGDFLSDTPEALINAGDFHGLQVLVGVVKDEGSYFLVYGAPGFSKDNESLISRAEFLAGVRVGVPQVSDLAAEAVVLHYTDWLHPEDPARLREALSDVVGDHNVVCPVAQLAGRLAAQGARVYAYVFEHRASTLSWPLWMGVPHGYEIEFIFGIPLDPSRNYTAEEKIFAQRLMRYWANFARTGDPNEPRDPKAPQWPPYTAGAQQYVSLDLRPLEVRRGLRAQACAFWNRFLPKLLSATDTLDEAERQWKAEFHRWSSYMVHWKNQFDHYSKQDRCSDL
With B2, in the experiment with α7-nAChR [5] (live cells, controls (Fig. 2D)), the “effect on [125I]α-BTX binding to the α7-nAChR” value is recorded as “neither full-length T-AChE, nor truncated T548, had an effect”. Besides, the “change in α7-nAChR mRNA expression” value in the experiment on α7-nAChR mRNA expression (10 nM protein, 24 hr) is given as “neither the full length T-AChE molecule (p = 0.3419), nor the truncated T548 (p = 0.1778), effected a significant change”.
